Measured values taken from patent publication US20060069132A1, “Azolecarboxamide herbicides” (priority 2004, published 2006).
Where two headings read alike, the source gives them in different places.

How the values were obtained:
barnyardgrass [1] = assay: Test A pre-/postemergence herbicide test; type: in vivo, Echinochloa crus-galli; settings: for pest or weed control at 500 g/ha / pest or weed control at 2000 g/ha: Echinochloa crus-galli, 240 h
Procedure, shortened: (§1)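 Visual injury rating on a 0–100 scale (0 no effect, 100 complete control) versus untreated controls, about ten days after treatment in greenhouse. Pre: directed soil spray onto seeded sandy loam. Post: spray to runoff on plants 2–10 cm tall at one- to two-leaf stage.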

large crabgrass = assay: Test B pre-/postemergence herbicide test; type: in vivo, Digitaria sanguinalis; settings: for pest or weed control at 500 g/ha / pest or weed control at 125 g/ha: Digitaria sanguinalis
Procedure, shortened: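 Plants compared with untreated controls 13–15 days post-treatment and given a visual 0–100 injury score. Applications: preemergence to seeds; postemergence at 1- to 4-leaf (2–18 cm); paddy species flooded, 2-leaf stage. Vehicle non-phytotoxic, surfactant included.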

johnsongrass = assay: Test C pre-/postemergence herbicide test; type: in vivo, Sorghum halepense
Procedure, shortened: (§2)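 Pre- and postemergence application, solvent/surfactant formulation; post at 1- to 4-leaf stage (2–18 cm). Greenhouse 12–14 d. Visual rating vs controls, 0 = no effect, 100 = complete control.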

lambsquarters = assay: Test C pre-/postemergence herbicide test; type: in vivo, Chenopodium album
Procedure, shortened: as §2

morningglory = assay: Test A pre-/postemergence herbicide test; type: in vivo, Ipomoea spp.; settings: for pest or weed control at 500 g/ha / pest or weed control at 2000 g/ha: Ipomoea, 240 h
Procedure, shortened: as §1

woolly cupgrass = assay: Test C pre-/postemergence herbicide test; type: in vivo, Eriochloa villosa
Procedure, shortened: as §2

barnyardgrass [2] = assay: Test B pre-/postemergence herbicide test; type: in vivo, Echinochloa crus-galli; settings: for pest or weed control at 500 g/ha / pest or weed control at 125 g/ha: Echinochloa crus-galli
Procedure, shortened: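 Visual rating, 0 (no effect) to 100 (complete control), versus untreated controls after 13–15 d in greenhouse. Pre- and postemergence applications (postemergence plants 2–18 cm, 1–4 leaves); flooded paddy arm at 2-leaf stage. Compounds in non-phytotoxic solvent plus surfactant.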

[3] = Postemergence, 500 g ai/ha, 0 to 100 scale, 0 no effect, 100 complete control
[4] = Postemergence, 2000 g ai/ha, 0 to 100 scale, 0 no effect, 100 complete control
[5] = Preemergence, 500 g ai/ha, visual rating, 0 to 100 scale (0 no effect, 100 complete control)
[6] = Preemergence, 2000 g ai/ha, visual rating, 0 to 100 scale (0 no effect, 100 complete control)
[7] = 500 g ai/ha, visual rating 0-100, 0 no effect, 100 complete control, preemergence
[8] = postemergence, 125 g ai/ha, visual rating, scale 0 (no effect) to 100 (complete control)
[9] = postemergence, 500 g ai/ha, visual rating, scale 0 (no effect) to 100 (complete control)
[10] = preemergence, 125 g ai/ha, 0 to 100 scale, 0 is no effect, 100 is complete control
[11] = 125 g ai/ha, scale 0 (no effect) to 100 (complete control), visual, 12 to 14 days, preemergence
[12] = Preemergence, 500 g ai/ha, scale 0 to 100, 0 no effect, 100 complete control
[13] = 250 g ai/ha, scale 0 to 100 (0 no effect, 100 complete control), visual, 12 to 14 days, preemergence
[14] = Preemergence, 2000 g ai/ha, 0 to 100 scale, 0 no effect, 100 complete control
[15] = Postemergence, 500 g ai/ha, visual rating after 13 to 15 days, scale 0 (no effect) to 100 (complete control)
[16] = Preemergence, 500 g ai/ha, scale 0 to 100
[17] = 31 g ai/ha, preemergence, scale 0 to 100

CCOC(=O)c1cccc(NC(=O)c2cc(C(C)(C)C)nn2CC)c1 [Compound 80, ethyl 3-[[[3-(1,1-dimethylethyl)-1-ethyl-1H-pyrazol-5-yl]carbonyl]-amino]benzoate]
pest or weed control at 500 g/ha (barnyardgrass [1]; post-emergence, Postemergence, 500 g ai/ha, 0 to 100 scale, 0 no effect, 100 complete control, read-out: Plant response rating, Barnyardgrass): 90%
pest or weed control at 2000 g/ha (barnyardgrass [1]; post-emergence, Postemergence, 2000 g ai/ha, 0 to 100 scale, 0 no effect, 100 complete control, read-out: Plant response rating, Barnyardgrass): 90%
pest or weed control at 500 g/ha (barnyardgrass [1]; pre-emergence, Preemergence, 500 g ai/ha, visual rating, 0 to 100 scale (0 no effect, 100 complete control), read-out: Barnyardgrass plant response rating): 10%
pest or weed control at 2000 g/ha (barnyardgrass [1]; pre-emergence, Preemergence, 2000 g ai/ha, 0 to 100 scale, 0 no effect, 100 complete control, read-out: Barnyardgrass plant response rating): 35%
pest or weed control at 500 g/ha (large crabgrass; post-emergence, Postemergence, 500 g ai/ha, visual rating after 13 to 15 days, scale 0 (no effect) to 100 (complete control), read-out: Plant response rating, Crabgrass, Large): 100%
pest or weed control at 125 g/ha (large crabgrass; post-emergence, postemergence, 125 g ai/ha, visual rating, scale 0 (no effect) to 100 (complete control), read-out: Crabgrass, Large plant response rating): 100%
pest or weed control at 500 g/ha (large crabgrass; pre-emergence, Preemergence, 500 g ai/ha, scale 0 to 100, read-out: Crabgrass, Large plant response rating): 0%
pest or weed control at 125 g/ha (large crabgrass; pre-emergence, preemergence, 125 g ai/ha, 0 to 100 scale, 0 is no effect, 100 is complete control, read-out: Plant response rating, Crabgrass, Large): 0%
Plant response rating (0 = no effect, 100 = complete control), Johnsongrass (johnsongrass; 62 g ai/ha, preemergence): 10
pest or weed control at 250 g/ha (johnsongrass; Sorghum halepense, post-emergence, Postemergence, 250 g ai/ha, scale 0 to 100, 0 no effect, 100 complete control, read-out: Plant response rating, Johnsongrass): 90%
pest or weed control at 125 g/ha (johnsongrass; Sorghum halepense, post-emergence, postemergence, 125 g ai/ha, scale 0 to 100, read-out: Plant response rating, Johnsongrass): 90%
pest or weed control at 62 g/ha (johnsongrass; Sorghum halepense, post-emergence, postemergence, 62 g ai/ha, scale 0 to 100, read-out: Plant response rating, Johnsongrass): 80%
pest or weed control at 31 g/ha (johnsongrass; Sorghum halepense, pre-emergence, 31 g ai/ha, preemergence, scale 0 to 100, read-out: Plant response rating, Johnsongrass): 0%
pest or weed control at 125 g/ha (johnsongrass; Sorghum halepense, pre-emergence, 125 g ai/ha, scale 0 (no effect) to 100 (complete control), visual, 12 to 14 days, read-out: Plant response rating, Johnsongrass): 10%
Plant response rating (0 = no effect, 100 = complete control), Lambsquarters (lambsquarters; 62 g ai/ha, preemergence): 0
pest or weed control at 250 g/ha (lambsquarters; Chenopodium album, post-emergence, Postemergence, 250 g ai/ha, scale 0 to 100, 0 no effect, 100 complete control, read-out: Plant response rating, Lambsquarters): 100%
pest or weed control at 125 g/ha (lambsquarters; Chenopodium album, post-emergence, postemergence, 125 g ai/ha, scale 0 to 100, read-out: Plant response rating, Lambsquarters): 100%
pest or weed control at 62 g/ha (lambsquarters; Chenopodium album, post-emergence, postemergence, 62 g ai/ha, scale 0 to 100, read-out: Plant response rating, Lambsquarters): 90%
pest or weed control at 31 g/ha (lambsquarters; Chenopodium album, pre-emergence, 31 g ai/ha, preemergence, scale 0 to 100, read-out: Plant response rating, Lambsquarters): 0%
pest or weed control at 125 g/ha (lambsquarters; Chenopodium album, pre-emergence, 125 g ai/ha, scale 0 (no effect) to 100 (complete control), visual, 12 to 14 days, read-out: Plant response rating, Lambsquarters): 10%
pest or weed control at 500 g/ha (morningglory; post-emergence, Postemergence, 500 g ai/ha, 0 to 100 scale, 0 no effect, 100 complete control, read-out: Plant response rating, Morningglory): 40%
pest or weed control at 2000 g/ha (morningglory; post-emergence, Postemergence, 2000 g ai/ha, 0 to 100 scale, 0 no effect, 100 complete control, read-out: Plant response rating, Morningglory): 50%
pest or weed control at 500 g/ha (morningglory; pre-emergence, Preemergence, 500 g ai/ha, visual rating, 0 to 100 scale (0 no effect, 100 complete control), read-out: Morningglory plant response rating): 15%
pest or weed control at 2000 g/ha (morningglory; pre-emergence, Preemergence, 2000 g ai/ha, 0 to 100 scale, 0 no effect, 100 complete control, read-out: Morningglory plant response rating): 30%
Plant response rating (0 = no effect, 100 = complete control), Cupgrass, Woolly (woolly cupgrass; 62 g ai/ha, preemergence): 0
pest or weed control at 250 g/ha (woolly cupgrass; Eriochloa villosa, post-emergence, 312 h, Postemergence, 250 g ai/ha, scale 0 to 100, 0 no effect, 100 complete control, read-out: Plant response rating, Cupgrass, Woolly): 90%
pest or weed control at 125 g/ha (woolly cupgrass; Eriochloa villosa, post-emergence, 312 h, postemergence, 125 g ai/ha, scale 0 to 100, read-out: Plant response rating, Cupgrass, Woolly): 90%
pest or weed control at 62 g/ha (woolly cupgrass; Eriochloa villosa, post-emergence, 312 h, postemergence, 62 g ai/ha, scale 0 to 100, read-out: Plant response rating, Cupgrass, Woolly): 80%
pest or weed control at 31 g/ha (woolly cupgrass; Eriochloa villosa, pre-emergence, 312 h, 31 g ai/ha, preemergence, scale 0 to 100, read-out: Plant response rating, Cupgrass, Woolly): 0%
pest or weed control at 125 g/ha (woolly cupgrass; Eriochloa villosa, pre-emergence, 312 h, 125 g ai/ha, scale 0 (no effect) to 100 (complete control), visual, 12 to 14 days, read-out: Plant response rating, Cupgrass, Woolly): 10%
pest or weed control at 250 g/ha (woolly cupgrass; Eriochloa villosa, pre-emergence, 312 h, 250 g ai/ha, scale 0 to 100 (0 no effect, 100 complete control), visual, 12 to 14 days, read-out: Plant response rating, Cupgrass, Woolly): 10%
pest or weed control at 500 g/ha (barnyardgrass [2]; post-emergence, Postemergence, 500 g ai/ha, visual rating after 13 to 15 days, scale 0 (no effect) to 100 (complete control), read-out: Plant response rating, Barnyardgrass): 90%
pest or weed control at 125 g/ha (barnyardgrass [2]; post-emergence, postemergence, 125 g ai/ha, visual rating, scale 0 (no effect) to 100 (complete control), read-out: Barnyardgrass plant response rating): 80%
pest or weed control at 500 g/ha (barnyardgrass [2]; pre-emergence, Preemergence, 500 g ai/ha, scale 0 to 100, read-out: Barnyardgrass plant response rating): 20%
pest or weed control at 125 g/ha (barnyardgrass [2]; pre-emergence, preemergence, 125 g ai/ha, 0 to 100 scale, 0 is no effect, 100 is complete control, read-out: Plant response rating, Barnyardgrass): 0%

CCCCOc1cccc(NC(=O)c2cc(C(C)(C)C)nn2CC)c1 [Compound 137]
Barnyardgrass plant response rating (barnyardgrass [1]; [3]): 20
Plant response rating, Barnyardgrass (barnyardgrass [1]; [4]): 25
Barnyardgrass plant response rating (barnyardgrass [1]; [5]): 30
Barnyardgrass plant response rating (barnyardgrass [1]; [6]): 60
Plant response rating, Crabgrass, Large (large crabgrass; [7]): 100
Crabgrass, Large plant response rating (large crabgrass; [8]): 10
Crabgrass, Large plant response rating (large crabgrass; [9]): 30
Plant response rating, Crabgrass, Large (large crabgrass; [10]): 80
Plant response rating (0 = no effect, 100 = complete control), Johnsongrass (johnsongrass; 62 g ai/ha, preemergence): 0
Plant response rating, Johnsongrass (johnsongrass; [11]): 5
Johnsongrass plant response rating (johnsongrass; [12]): 40
Plant response rating (0 = no effect, 100 = complete control), Lambsquarters (lambsquarters; 62 g ai/ha, preemergence): 40
Plant response rating, Lambsquarters (lambsquarters; [11]): 100
Lambsquarters plant response rating (lambsquarters; [12]): 100
Morningglory plant response rating (morningglory; [3]): 25
Plant response rating, Morningglory (morningglory; [4]): 40
Morningglory plant response rating (morningglory; [5]): 20
Morningglory plant response rating (morningglory; [6]): 35
Plant response rating (0 = no effect, 100 = complete control), Cupgrass, Woolly (woolly cupgrass; 62 g ai/ha, preemergence): 0
Plant response rating, Cupgrass, Woolly (woolly cupgrass; [11]): 0
Plant response rating, Cupgrass, Woolly (woolly cupgrass; [13]): 5
Cupgrass, Woolly plant response rating (woolly cupgrass; [12]): 40
Plant response rating, Barnyardgrass (barnyardgrass [2]; [7]): 70
Barnyardgrass plant response rating (barnyardgrass [2]; [8]): 30
Barnyardgrass plant response rating (barnyardgrass [2]; [9]): 40
Plant response rating, Barnyardgrass (barnyardgrass [2]; [10]): 10

CCn1nc(C(C)(C)C)cc1C(=O)Nc1cccc(C(=O)NCC2CC2)c1 [Compound 62]
Plant response rating, Barnyardgrass (barnyardgrass [1]; [3]): 65
Plant response rating, Barnyardgrass (barnyardgrass [1]; [4]): 100
Barnyardgrass plant response rating (barnyardgrass [1]; [5]): 50
Barnyardgrass plant response rating (barnyardgrass [1]; [14]): 95
Plant response rating, Crabgrass, Large (large crabgrass; [15]): 20
Crabgrass, Large plant response rating (large crabgrass; [16]): 100
Crabgrass, Large plant response rating (large crabgrass; [8]): 10
Plant response rating, Crabgrass, Large (large crabgrass; [10]): 80
Plant response rating, Johnsongrass (johnsongrass; [17]): 0
Plant response rating (0 = no effect, 100 = complete control), Johnsongrass (johnsongrass; 62 g ai/ha, preemergence): 40
Plant response rating, Johnsongrass (johnsongrass; [11]): 40
Plant response rating, Johnsongrass (johnsongrass; [13]): 70
Plant response rating, Lambsquarters (lambsquarters; [17]): 100
Plant response rating (0 = no effect, 100 = complete control), Lambsquarters (lambsquarters; 62 g ai/ha, preemergence): 100
Plant response rating, Lambsquarters (lambsquarters; [11]): 100
Plant response rating, Lambsquarters (lambsquarters; [13]): 100
Plant response rating, Morningglory (morningglory; [3]): 10
Plant response rating, Morningglory (morningglory; [4]): 20
Morningglory plant response rating (morningglory; [5]): 20
Morningglory plant response rating (morningglory; [14]): 75
Plant response rating, Cupgrass, Woolly (woolly cupgrass; [17]): 0
Plant response rating (0 = no effect, 100 = complete control), Cupgrass, Woolly (woolly cupgrass; 62 g ai/ha, preemergence): 0
Plant response rating, Cupgrass, Woolly (woolly cupgrass; [11]): 0
Plant response rating, Cupgrass, Woolly (woolly cupgrass; [13]): 20
Plant response rating, Barnyardgrass (barnyardgrass [2]; [15]): 50
Barnyardgrass plant response rating (barnyardgrass [2]; [16]): 80
Barnyardgrass plant response rating (barnyardgrass [2]; [8]): 20
Plant response rating, Barnyardgrass (barnyardgrass [2]; [10]): 20
